Columns and labels:
P-gp (MDR1) = experiment: MDCK-MDR1 assay (permeability, efflux ratio); assay type: in vitro ADME; conditions: dog
Procedure: The permeability of the test compounds was assessed in MDCK-MDR1 cells that were cultured to confluency (4-6 days) in a 96 transwell plate. Test compounds were diluted with the transport buffer (HBSS+1% BSA) to a concentration of 0.5 μM and applied to the apical or basolateral side of the cell monolayer. Permeation of the test compounds from A to B direction or B to A direction was determined in triplicate over a 60-minute incubation time at 37° C. and 5% CO2 with a relative humidity of 95%. Test compounds were quantified by LC-MS/MS analysis based on the peaks area ratios of analyte/IS in both the receiver and donor wells of the transwell plate.
The apparent permeability coefficient Papp (cm/s) was calculated using the equation: Papp=(dCr/dt)×Vr/(A×C0)
Where dCr/dt is the cumulative concentration of compound in the receiver chamber as a function of time (μM/s); Vr is the solution volume in the receiver chamber (0.05 mL on the apical side; 0.25 mL on the basolateral side); A is the surface area for the transport, i.e. 0.0804 cm^2 for the area of the monolayer; C0 is the initial concentration in the donor chamber (μM).

human BACE1 [1] = target: T1, human BACE1 (Homo sapiens, UniProt P56817); experiment: BACE1 efficacy assay (FRET-based, commercial BACE1 kit); assay type: biochemical; parameters: purchased Life Technologies P2985; conditions: test compound at 10 μM
T1 sequence (P56817 46-501): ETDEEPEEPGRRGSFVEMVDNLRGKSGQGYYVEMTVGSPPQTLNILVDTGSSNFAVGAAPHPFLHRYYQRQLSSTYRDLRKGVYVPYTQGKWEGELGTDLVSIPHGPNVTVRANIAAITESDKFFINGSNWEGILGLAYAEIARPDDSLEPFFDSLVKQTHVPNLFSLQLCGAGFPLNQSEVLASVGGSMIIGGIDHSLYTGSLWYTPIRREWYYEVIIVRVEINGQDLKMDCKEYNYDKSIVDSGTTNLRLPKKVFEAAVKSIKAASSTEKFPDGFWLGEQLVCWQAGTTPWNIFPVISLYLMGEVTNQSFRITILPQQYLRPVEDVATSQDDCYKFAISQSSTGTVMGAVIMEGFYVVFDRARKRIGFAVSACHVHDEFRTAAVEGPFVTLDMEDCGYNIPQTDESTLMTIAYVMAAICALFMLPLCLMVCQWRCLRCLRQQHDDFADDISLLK
Procedure: The efficacy assay was performed as a FRET-based assay using a commercially available BACE1 kit (Life Technologies, P2985). 2 μl test compound at 10 μM (final concentration) and 15 μl BACE1 enzyme from the kit (final concentration 3 nM) were preincubated for 15 minutes at room temperature before addition of 15 μl of substrate from the kit (250 nM final concentration) and incubated for additional 90 minutes at room temperature. The assay plate was subsequently read in a Pherastar (Ex540/Em590).

human BACE1 [2] = target: T1, human BACE1; experiment: BACE1 binding assay (SPA-based, radioligand displacement); parameters: biotin (biotinylated form); made in house; host or cells: Freestyle HEK293 cells; conditions: pH 4.5, 10 nM radioligand, 6 nM human BACE1, read-out: BACE1 binding affinity
Procedure: The binding assay was performed as SPA-based assay using a biotinylated form of human BACE1 recombinantly expressed and subsequently purified from Freestyle HEK293 cells. The binding assay was run in a 50 mM sodium acetate buffer, pH 4.5 containing 50 mM NaCl and 0.03% Tween-20 in white clear bottom 384 plates (Corning #3653). 10 nM (final concentration) radioligand ([^3H]-N-((1S,2R)-1-benzyl-3-cyclopropylamino-2-hydroxy-propyl)-5-(methanesulfonyl-methyl-amino)-N-((R)-1-phenyl-ethyl)-isophthalamide) (TRQ11569 purchased from GE Healthcare) was mixed with test compound at a given concentration, 6 nM (final concentration) human BACE1 and 25 μg Streptavidin coated PVT core SPA beads (RPNQ0007, GE Healthcare Life Sciences) in a total volume of 40 μl. Several concentrations of each test compound were tested in the assay for IC50 determination. The plates were incubated for one hour at room temperature and counted in a WaIlac Trilux counter. […] For each test compound, a IC50 value (the concentration mediating 50% inhibition of the specific binding of the radioligand) was determined from concentration-response curve and used to calculate the Ki from the equation Ki=IC50/(1+L/Kd), where L and Kd are the final concentration of the radioligand used in the assay and the dissociation constant of the radioligand, respectively. The Kd of the radioligand was determined from saturation binding experiments.

| efflux ratio at 60 min, 0.5 µM (P-gp (MDR1)) | inhibition at 10 µM (human BACE1 [1]) [%] | Ki (human BACE1 [2]) [nM] | SMILES |
| --- | --- | --- | --- |
| 0.89 | 106 | 22 | COc1ccc(C(=O)Nc2ccc(F)c([C@]3(C)CC[C@@](F)(CF)C(N)=N3)c2)nc1 [Compound 1, N-(3-((2S,5S)-6-Amino-5-fluoro-5-(fluoromethyl)-2-methyl-2,3,4,5-tetrahydropyridin-2-yl)-4-fluorophenyl)-5-methoxypicolinamide] |
| 2.32 | 104 | 20 | [2H]C([2H])([2H])Oc1ccc(C(=O)Nc2ccc(F)c([C@]3(C)CC[C@@](F)(CF)C(N)=N3)c2)nc1 [Compound 2, N-(3-((2S,5S)-6-Amino-5-fluoro-5-(fluoromethyl)-2-methyl-2,3,4,5-tetrahydropyridin-2-yl)-4-fluorophenyl)-5-(methoxy-d3)picolinamide] |
| 4.87 | 105 | 10 | Cc1cc(C#N)cnc1C(=O)Nc1ccc(F)c([C@]2(C)CC[C@@](F)(CF)C(N)=N2)c1 [Compound 3, N-(3-((2S,5S)-6-Amino-5-fluoro-5-(fluoromethyl)-2-methyl-2,3,4,5-tetrahydropyridin-2-yl)-4-fluorophenyl)-5-cyano-3-methylpicolinamide] |
| 1.34 | 102 | 11 | C[C@@]1(c2cc(NC(=O)c3ccc(Cl)cn3)ccc2F)CC[C@@](F)(CF)C(N)=N1 [Compound 4, N-(3-((2S,5S)-6-Amino-5-fluoro-5-(fluoromethyl)-2-methyl-2,3,4,5-tetrahydropyridin-2-yl)-4-fluorophenyl)-5-chloropicolinamide] |
| 7 | 106 | 46 | Cc1nc(C(=O)Nc2ccc(F)c([C@]3(C)CC[C@@](F)(CF)C(N)=N3)c2)co1 [Compound 6] |
| – | 104 | 67 | Cn1cc(Br)nc1C(=O)Nc1ccc(F)c([C@]2(C)CC[C@@](F)(CF)C(N)=N2)c1 [Compound 7, N-(3-((2S,5S)-6-Amino-5-fluoro-5-(fluoromethyl)-2-methyl-2,3,4,5-tetrahydropyridin-2-yl)-4-fluorophenyl)-4-bromo-1-methyl-1H-imidazole-2-carboxamide] |
| 2.36 | – | 62 | Cc1csc(C(=O)Nc2ccc(F)c([C@]3(C)CC[C@@](F)(CF)C(N)=N3)c2)n1 [Compound 8, N-(3-((2S,5S)-6-Amino-5-fluoro-5-(fluoromethyl)-2-methyl-2,3,4,5-tetrahydropyridin-2-yl)-4-fluorophenyl)-4-methylthiazole-2-carboxamide] |
| 8.61 | 103 | 26 | C[C@@]1(c2cc(NC(=O)c3coc(C(F)F)n3)ccc2F)CC[C@@](F)(CF)C(N)=N1 [Compound 9] |
| 10.6 | 103 | 22 | C[C@@]1(c2cc(NC(=O)c3ccn(C(F)F)n3)ccc2F)CC[C@@](F)(CF)C(N)=N1 [Compound 10] |
| – | 103 | 140 | C[C@@]1(c2cc(NC(=O)c3ccc(Cl)cc3)ccc2F)CC[C@@](F)(CF)C(N)=N1 [Compound 12, N-(3-((2S,5S)-6-Amino-5-fluoro-5-(fluoromethyl)-2-methyl-2,3,4,5-tetrahydropyridin-2-yl)-4-fluorophenyl)-4-chlorobenzamide] |
| 1.06 | 103 | 130 | COc1ccc(C(=O)Nc2ccc(F)c([C@]3(C)CC[C@](F)(CF)C(N)=N3)c2)nc1 [Compound 14, N-(3-((2S,5R)-6-Amino-5-fluoro-5-(fluoromethyl)-2-methyl-2,3,4,5-tetrahydropyridin-2-yl)-4-fluorophenyl)-5-methoxypicolinamide] |
| 1.17 | 104 | 52 | C[C@@]1(c2cc(NC(=O)c3ccc(F)cn3)cc(F)c2F)CC[C@@](F)(CF)C(N)=N1 [Compound 15, N-[3-[(2S,5S)-6-Amino-5-fluoro-5-(fluoromethyl)-2-methyl-2,3,4,5-tetrahydropyridin-2-yl]-4,5-difluoro-phenyl]-5-fluoro-pyridine-2-carboxamide] |
| – | 104 | – | COc1ccc(C(=O)Nc2cc(F)c(F)c([C@]3(C)CC[C@@](F)(CF)C(N)=N3)c2)nc1 [Compound 16, N-[3-[(2S,5S)-6-Amino-5-fluoro-5-(fluoromethyl)-2-methyl-2,3,4,5-tetrahydropyridin-2-yl]-4,5-difluoro-phenyl]-5-methoxy-pyridine-2-carboxamide] |
| – | 103 | 300 | C[C@@]1(c2cc(NC(=O)c3ccc(F)cn3)cc(F)c2F)CC[C@](F)(CF)C(N)=N1 [Compound 18, N-[3-[(2S,5R)-6-Amino-5-fluoro-5-(fluoromethyl)-2-methyl-2,3,4,5-tetrahydropyridin-2-yl]-4,5-difluoro-phenyl]-5-fluoro-pyridine-2-carboxamide] |
| – | 104 | – | COc1ccc(C(=O)Nc2cc(F)c(F)c([C@]3(C)CC[C@](F)(CF)C(N)=N3)c2)nc1 [Compound 19, N-[3-[(2S,5R)-6-Amino-5-fluoro-5-(fluoromethyl)-2-methyl-2,3,4,5-tetrahydropyridin-2-yl]-4,5-difluoro-phenyl]-5-methoxy-pyridine-2-carboxamide] |
| 0.77 | 102 | 230 | COc1cnc(C(=O)Nc2cc(F)c(F)c([C@]3(C)CC[C@](F)(CF)C(N)=N3)c2)cn1 [Compound 20, N-[3-[(2S,5R)-6-Amino-5-fluoro-5-(fluoromethyl)-2-methyl-2,3,4,5-tetrahydropyridin-2-yl]-4,5-difluoro-phenyl]-5-methoxy-pyrazine-2-carboxamide] |
| 0.97 | – | 67 | NC1=N[C@](CF)(c2cc(NC(=O)c3ccc(F)cn3)ccc2F)CC[C@@]1(F)CF [Compound 21, N-[3-[(2S,5S)-6-amino-5-fluoro-2,5-bis(fluoromethyl)-2,3,4,5-tetrahydropyridin-2-yl]-4-fluoro-phenyl]-5-fluoro-pyridine-2-carboxamide] |
| 1.06 | – | 17 | COc1cnc(C(=O)Nc2ccc(F)c([C@]3(CF)CC[C@@](F)(CF)C(N)=N3)c2)cn1 [Compound 23, N-[3-[(2S,5S)-6-amino-5-fluoro-2,5-bis(fluoromethyl)-2,3,4,5-tetrahydropyridin-2-yl]-4-fluoro-phenyl]-5-methoxy-pyrazine-2-carboxamide] |
| 0.88 | – | 180 | NC1=N[C@](CF)(c2cc(NC(=O)c3ccc(F)cn3)ccc2F)CC[C@]1(F)CF [Compound 24, N-[3-[(2S,5R)-6-amino-5-fluoro-2,5-bis(fluoromethyl)-2,3,4,5-tetrahydropyridin-2-yl]-4-fluoro-phenyl]-5-fluoro-pyridine-2-carboxamide] |
| 0.92 | – | 160 | COc1cnc(C(=O)Nc2ccc(F)c([C@]3(CF)CC[C@](F)(CF)C(N)=N3)c2)cn1 [Compound 26, N-[3-[(2S,5R)-6-amino-5-fluoro-2,5-bis(fluoromethyl)-2,3,4,5-tetrahydropyridin-2-yl]-4-fluoro-phenyl]-5-methoxy-pyrazine-2-carboxamide] |
